This passage reports IC50 results from patent US20250186391A1, “ORAL COMPLEMENT FACTOR D INHIBITORS” (BioCryst Pharmaceuticals, Inc., priority 2019, published 2025).

For orientation: IC50 means the concentration that inhibits the measured activity by half.

Sequence of Factor D (P00746 26-253): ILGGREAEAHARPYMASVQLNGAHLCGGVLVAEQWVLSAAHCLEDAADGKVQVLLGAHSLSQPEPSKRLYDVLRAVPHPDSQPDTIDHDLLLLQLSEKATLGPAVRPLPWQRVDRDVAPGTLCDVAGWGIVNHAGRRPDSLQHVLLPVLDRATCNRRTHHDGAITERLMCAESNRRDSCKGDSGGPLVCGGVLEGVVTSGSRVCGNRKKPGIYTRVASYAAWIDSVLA

The experiment addresses Factor D (Homo sapiens (Human), UniProt P00746). Nature of the experiment: Factor D esterolytic assay. In kind it is biochemical. The conditions noted are these: Z-Lys-SBzl substrate, 100 mM HEPES, 500 mM NaCl, pH 7.5, 10% DMSO; tested a minimum of three times; read-out: Measured Ki (IC50) Value for Compounds: IC50. An outline of the steps: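 Buffer was 100 mM HEPES, 500 mM NaCl, pH 7.5 with 10% DMSO. Compound and Factor D were combined, then Z-Lys-SBzl (1.29 mM) was added either at once or following room-temperature incubation. Rates came from DTNB colour at 405 nm minus 690 nm over 600 s, with percent inhibition giving IC50 over at least three tests.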
Regarding `COc1c(-c2ccc3c(c2)c(COc2ccccc2CC(=O)O)nn3C2CCCC2)ccnc1CN` [Compound 327d, 2-(2-((5-(2-(aminomethyl)-3-methoxypyridin-4-yl)-1-cyclopentyl-1H-indazol-3-yl)methoxy)phenyl)acetic acid], the IC50 is 1000 to 10000 nM.

For `NCc1cccc(-c2cccc3cc(COc4ccccc4CC(=O)O)sc23)c1` [Compound 30d, 2-(2-((7-(3-(aminomethyl)phenyl)benzo[b]thiophen-2-yl)methoxy)phenyl)acetic acid], the IC50 was < 1000 nM.

As to `CC(C)n1nc(COc2ccccc2CC(=O)O)c2cc(-c3cc(O)cc(CN)c3)ccc21` [Compound 243g, 2-(2-((5-(3-(aminomethyl)-5-hydroxyphenyl)-1-isopropyl-1H-indazol-3-yl)methoxy)phenyl)acetic acid], the IC50 is < 1000 nM.

For the molecule `COc1ccc(CC(=O)O)c(OCc2c(C)oc3ccc(-c4cccc(CN)c4F)cc23)c1` [Compound 201b, 2-(2-((5-(3-(aminomethyl)-2-fluorophenyl)-2-methylbenzofuran-3-yl)methoxy)-4-methoxyphenyl)acetic acid], the IC50 is < 1000 nM.

In the case of `COCCc1oc2ccc(-c3cccc(CN)c3)cc2c1COc1ccccc1CC(=O)O` [Compound 175h, 2-(2-((5-(3-(aminomethyl)phenyl)-2-(2-methoxyethyl)benzofuran-3-yl)methoxy)phenyl)acetic acid], the IC50 is < 1000 nM.

Regarding `Cc1ccc(CC(=O)O)c(OCc2coc3c2cc(-c2cccc(CN)c2)c2occc23)c1` [Compound 230c, 2-(2-((5-(3-(aminomethyl)phenyl)benzo[1,2-b:3,4-b′]difuran-3-yl)methoxy)-4-methylphenyl)acetic acid], the IC50 is < 1000 nM.

Turning to `N#Cc1ccc(CC(=O)O)c(OCc2coc3ccc(-c4cccc(CN)c4)cc23)c1` [Compound 57d, 2-(2-((5-(3-(aminomethyl)phenyl)benzofuran-3-yl)methoxy)-4-cyanophenyl)acetic acid], the IC50 is < 1000 nM.

With `NCc1cccc(-c2ccc3cnn(Cc4ccccc4CC(=O)O)c3c2)c1` [Compound 67e, 2-(2-((6-(3-(aminomethyl)phenyl)-1H-indazol-1-yl)methyl)phenyl)acetic acid], the IC50 is < 1000 nM.

On to `CCc1oc2ccc(-c3cccc(CN)c3F)cc2c1COc1cc(OC)ccc1CC(=O)O` [Compound 227b, 2-(2-((5-(3-(aminomethyl)-2-fluorophenyl)-2-ethylbenzofuran-3-yl)methoxy)-4-methoxyphenyl)acetic acid], for which the IC50 is < 1000 nM.

As to `CNc1cc(-c2cccc(CN)c2)cc2c(COc3cc(OC)ccc3CC(=O)O)coc12` [Compound 280c, 2-(2-((5-(3-(aminomethyl)phenyl)-7-(methylamino)benzofuran-3-yl)methoxy)-4-methoxyphenyl)acetic acid], the IC50 was < 1000 nM.

Regarding `CC(C(=O)O)c1ccccc1OCc1coc2c(NCC3CCCC3)cc(-c3cccc(CN)c3)cc12` (stereo not shown) [Compound 186c, 2-(2-((5-(3-(aminomethyl)phenyl)-7-((cyclopentylmethyl)amino)benzofuran-3-yl)methoxy)phenyl)propanoic acid], the IC50 is < 1000 nM.

As for `NCc1cccc(-c2ccc3occ(COc4cc(CC5CC5)ccc4CC(=O)O)c3c2)c1` [Compound 153d, 2-(2-((5-(3-(aminomethyl)phenyl)benzofuran-3-yl)methoxy)-4-(cyclopropylmethyl)phenyl)acetic acid], the half-inhibitory concentration (IC50) was < 1000 nM.

`NCc1cccc(-c2cc(COc3cccc(CC(=O)O)c3)cc3cc(COc4ccccc4CC(=O)O)oc23)c1` [Compound 16e, 2-(3-((7-(3-(aminomethyl)phenyl)-2-((2-(carboxymethyl)phenoxy)methyl)benzofuran-5-yl)methoxy)phenyl)acetic acid]: the IC50 was < 1000 nM.

On to `COc1ccc(CC(=O)O)c(OCc2coc3ccc(-c4ccnc(CN)c4)cc23)c1` [Compound 68e, 2-(2-((5-(2-(aminomethyl)pyridin-4-yl)benzofuran-3-yl)methoxy)-4-methoxyphenyl)acetic acid], for which the IC50 is < 1000 nM.

Turning to `COc1cc(-c2cccc(CN)c2)cc2c(COc3ccccc3CC(=O)O)coc12` [Compound 18e, 2-(2-((5-(3-(aminomethyl)phenyl)-7-methoxybenzofuran-3-yl)methoxy)phenyl)acetic acid], the IC50 was < 1000 nM.

For the molecule `NCc1cccc(-c2cccc3ccc(COc4ccccc4CC(=O)O)cc23)c1` [Compound 99d, 2-(2-((8-(3-(aminomethyl)phenyl)naphthalen-2-yl)methoxy)phenyl)acetic acid], the IC50 was > 10000 nM.

As for `NCc1cccc(-c2ccc3occ(COc4c(F)cccc4CC(=O)O)c3c2)c1` [Compound 44d, 2-(2-((5-(3-(aminomethyl)phenyl)benzofuran-3-yl)methoxy)-3-fluorophenyl)acetic acid], the IC50 is < 1000 nM.

For `NCc1cccc(-c2ccc3occ(COc4c(F)cccc4CC(=O)O)c3c2)c1F` [Compound 46b, 2-(2-((5-(3-(aminomethyl)-2-fluorophenyl)benzofuran-3-yl)methoxy)-3-fluorophenyl)acetic acid], the IC50 is < 1000 nM.

Consider `NCc1cccc(-c2coc3c(COc4ccccc4CC(=O)O)cccc23)c1` [Compound 96e, 2-(2-((3-(3-(aminomethyl)phenyl)benzofuran-7-yl)methoxy)phenyl)acetic acid], for which the IC50 was > 10000 nM.

With `CC(C)n1nc(C(=O)Nc2ccccc2CC(=O)O)c2cc(-c3cccc(CN)c3)ccc21` [Compound 293c, 2-(2-(5-(3-(aminomethyl)phenyl)-1-isopropyl-1H-indazole-3-carboxamido)phenyl)acetic acid], the IC50 is < 1000 nM.

As to `COc1ccc(CC(=O)O)c(OCc2nn(C)c3ccc(-c4cccc(CN)c4)cc23)c1` [Compound 185c, 2-(2-((5-(3-(aminomethyl)phenyl)-1-methyl-1H-indazol-3-yl)methoxy)-4-methoxyphenyl)acetic acid], the IC50 is < 1000 nM.

For the molecule `CC(C)n1cc(-c2cc(-c3cccc(CN)c3)cc3c(COc4ccccc4CC(=O)O)coc23)cn1` [Compound 130c, 2-(2-((5-(3-(aminomethyl)phenyl)-7-(1-isopropyl-1H-pyrazol-4-yl)benzofuran-3-yl)methoxy)phenyl)acetic acid], the IC50 was < 1000 nM.

In the case of `COc1ccc(CC(=O)O)c(OCc2c(C(=O)O)sc3ccc(-c4cccc(CN)c4)cc23)c1` [Compound 62c, 5-(3-(aminomethyl)phenyl)-3-((2-(carboxymethyl)-5-methoxyphenoxy)methyl)benzo[b]thiophene-2-carboxylic acid], the IC50 is < 1000 nM.

In the case of `Cc1nn(C)cc1-c1cc(-c2cccc(CN)c2)cc2c(COc3ccccc3CC(=O)O)coc12` [Compound 134c, 2-(2-((5-(3-(aminomethyl)phenyl)-7-(1,3-dimethyl-1H-pyrazol-4-yl)benzofuran-3-yl)methoxy)phenyl)acetic acid], the IC50 is < 1000 nM.

On to `CC(C)n1nc(COc2ccccc2CCC(=O)O)c2cc(-c3cccc(CN)c3)ccc21` [Compound 308d, 3-(2-((5-(3-(aminomethyl)phenyl)-1-isopropyl-1H-indazol-3-yl)methoxy)phenyl)propanoic acid], for which the IC50 lay within 1000 to 10000 nM.

For the molecule `CC(C)(C)c1oc2ccc(-c3cccc(CN)c3)cc2c1COc1ccccc1CC(=O)O` [Compound 171i, 2-(2-((5-(3-(aminomethyl)phenyl)-2-(tert-butyl)benzofuran-3-yl)methoxy)phenyl)acetic acid], the IC50 is < 1000 nM.

Take `NCc1cc(-c2cc3c(COc4ccccc4CC(=O)O)cccc3o2)ccn1` [Compound 290h, 2-(2-((2-(2-(aminomethyl)pyridin-4-yl)benzofuran-4-yl)methoxy)phenyl)acetic acid]: the IC50 is < 1000 nM.

As for `Cc1ccccc1-c1cc(-c2cccc(CN)c2)cc2c(COc3ccccc3CC(=O)O)coc12` [Compound 223c, 2-(2-((5-(3-(aminomethyl)phenyl)-7-(o-tolyl)benzofuran-3-yl)methoxy)phenyl)acetic acid], the IC50 is < 1000 nM.

`NCc1cccc(-c2ccc3c(c2)c(COc2ccccc2CC(=O)O)nn3-c2ccncc2)c1` [Compound 265c, 2-(2-((5-(3-(aminomethyl)phenyl)-1-(pyridin-4-yl)-1H-indazol-3-yl)methoxy)phenyl)acetic acid]: the IC50 was < 1000 nM.

On to `CC(C)n1nc(COc2ccccc2CC(=O)O)c2cc(-c3ccnc(CN)c3)ccc21` [Compound 266b, 2-(2-((5-(2-(aminomethyl)pyridin-4-yl)-1-isopropyl-1H-indazol-3-yl)methoxy)phenyl)acetic acid], for which the IC50 was < 1000 nM.

For `COc1ccc(CC(=O)O)c(OCc2c(C)oc3ccc(-c4cccc(CN)c4)cc23)c1` [Compound 138c, 2-(2-((5-(3-(aminomethyl)phenyl)-2-methylbenzofuran-3-yl)methoxy)-4-methoxyphenyl)acetic acid], the IC50 is < 1000 nM.

On to `CC(=O)c1oc2ccc(-c3cccc(CN)c3)cc2c1COc1ccccc1CC(=O)O` [Compound 141c, 2-(2-((2-acetyl-5-(3-(aminomethyl)phenyl)benzofuran-3-yl)methoxy)phenyl)acetic acid], for which the IC50 was < 1000 nM.

As to `NCc1cccc(-c2ccc3c(COc4ccccc4CC(=O)O)coc3c2)c1F` [Compound 95b, 2-(2-((6-(3-(aminomethyl)-2-fluorophenyl)benzofuran-3-yl)methoxy)phenyl)acetic acid], the IC50 is > 10000 nM.

For `NCc1cccc(-c2cc(C(F)(F)F)c3occ(COc4ccccc4CC(=O)O)c3c2)c1` [Compound 113g, 2-(2-((5-(3-(aminomethyl)phenyl)-7-(trifluoromethyl)benzofuran-3-yl)methoxy)phenyl)acetic acid], the half-inhibitory concentration (IC50) is < 1000 nM.
